Measured values reported in US20250062039A1, “ESTIMATION OF PHARMACOKINETIC (PK) PARAMETERS OF DRUG CANDIDATES USING UNIVERSAL PK PARAMETERS BOUNDS” (Tata Consultancy Services Limited, priority 2023, published 2025).
Several values for one entry are separate records, joined by “and”; a condition that tells them apart may be missing. Identical values can stand only once. Like-named read-outs stand apart in the source and are kept apart here.

Tests used:
[1] = Oral 500 mg; cited from earlier work
[2] = clinical; settings: human, in vivo, po, 500 mg
[3] = human, in vivo, po, 500 mg
[4] = cited from earlier work; for Conc (plasma concentration): 200 mg intravenously, subject 68 kg; for Alpha / A: individual subjects W
[5] = Published cocaine pharmacokinetics in humans, IV bolus: parameters and PCT profile (Barnett et al. 1981)
[6] = 200 mg IV, two compartment model
[7] = IV bolus, Dose = 100 mg, X, Y, listed as Cocain
[8] = IV bolus, Dose = 200 mg, Z, listed as Cocain
[9] = IVBolus 200 mg, bi-exponential model (Table 6)

## CC[C@H]1OC(=O)[C@H](C)[C@@H](O[C@H]2C[C@@](C)(OC)[C@@H](O)[C@H](C)O2)[C@H](C)[C@@H](O[C@@H]2O[C@H](C)C[C@H](N(C)C)[C@H]2O)[C@](C)(O)C[C@@H](C)CN(C)[C@H](C)[C@@H](O)[C@]1(C)O [Azithromycin]
[1]
  AUC, Maximum: 6380 ng·h/mL
  AUC, Mean Value: 4860 ng·h/mL
  AUC, Minimum: 3500 ng·h/mL
  CL, Mean Value: 664.84 mL/min
  K10, Maximum: 0.12 h⁻¹
  K10, Mean Value: 0.08 h⁻¹
  K10, Minimum: 0.05 h⁻¹
  K12, Maximum: 0.18 h⁻¹
  K12, Mean Value: 0.12 h⁻¹
  K12, Minimum: 0.07 h⁻¹
  K21, Maximum: 0.06 h⁻¹
  K21, Mean Value: 0.04 h⁻¹
  K21, Minimum: 0.03 h⁻¹
  Ke, Maximum: 0.02 h⁻¹
  Ke, Mean Value: 0.02 h⁻¹
  Ke, Minimum: 0.02 h⁻¹
  T1/2 beta, Mean Value: 55.46 h
  V1, Maximum: 1025.35 L
  V1, Mean Value: 586.83 L
  V1, Minimum: 341.94 L
  V2, Maximum: 3193.05 L
  V2, Mean Value: 1779.12 L
  V2, Minimum: 798.71 L
  Vd beta, Mean Value: 3219.51 L
  Vss, Maximum: 4218.4 L
  Vss, Mean Value: 2347.95 L
  Vss, Minimum: 1018.78 L
[2]
  AUC: 6380 ng·h/mL
  half-life: 76.2 h
[3]
  CL, Selected Parameter Value: 280.35 mL/min
  Vd beta, Selected Parameter Value: 5475.92 L
  Vss, Selected Parameter Value: 4218.4 L

## COC(=O)[C@H]1[C@@H](OC(=O)c2ccccc2)C[C@@H]2CC[C@H]1N2C [Cocaine]
[4]; [6]
  A, Published parameter value: 2.482 µg/mL
  Alpha, Published parameter value: 3.192 h⁻¹
  B, Published parameter value: 1.997 µg/mL
  Beta, Published parameter value: 0.505 h⁻¹
[4]; Time 0.08333333 hr
  Conc (plasma concentration): 3868 ng/mL
[4]; Time 0.33333333 hr
  Conc (plasma concentration): 2476 ng/mL
[4]; Time 0.65 hr
  Conc (plasma concentration): 2031 ng/mL
[4]; Time 1 hr
  Conc (plasma concentration): 1222 ng/mL
[4]; Time 2.13333333 hr
  Conc (plasma concentration): 696 ng/mL
[4]; Time 3.2 hr
  Conc (plasma concentration): 453 ng/mL
[4]; Time 4.16666667 hr
  Conc (plasma concentration): 219 ng/mL
[4]; Time 5.15 hr
  Conc (plasma concentration): 145 ng/mL
[4]; Time 6.15 hr
  Conc (plasma concentration): 94 ng/mL
[4]; IV bolus, Dose = 100 mg, X, Y
  Alpha: 0.0135 min⁻¹ and 0.0172 min⁻¹ and 0.0147 min⁻¹
[4]; [7]
  A: 860 ng/mL and 558 ng/mL and 1139 ng/mL
  Alpha: 0.0135 min⁻¹ and 0.0172 min⁻¹ and 0.0147 min⁻¹
[4]; IV bolus, Dose = 200 mg, Sub-W
  B: 1997 ng/mL
  Beta: 0.00842 min⁻¹
[4]; IV bolus, Dose = 200 mg, Z
  Alpha: 0.0532 min⁻¹ and 0.00879 min⁻¹
[4]; [8]
  A: 2482 ng/mL and 1432 ng/mL
  Alpha: 0.0532 min⁻¹ and 0.00879 min⁻¹
[4]; [9]
  A, Value: 2482 ng/mL
  Alpha, Value: 0.05 min⁻¹
  B, Value: 1997 ng/mL
[4]; IVBolus 200 mg
  Cmax: (Cmax = 3868) ng/ml
[5]; maximum over all subjects and doses 100, 200 mg (Rule 7)
  Alpha, Selected Value: 0.0532 min⁻¹
[5]; maximum over all subjects and doses (Rule 7)
  Beta, Selected Value: 0.00842 min⁻¹
